Results taken from US20180064811A1, “PHARMACEUTICAL COMBINATIONS COMPRISING CD33 ANTIBODIES AND DE-METHYLATING AGENTS” (Boehringer Ingelheim International GmbH, priority 2013, published 2018).

Tested on: HL60 cells
Assay: ADCC (LDH release) of CD33 antibody CD33-1 with PBMC effector cells pre-treated with de-methylating agents
Format: cell-based, human
Conditions: for Relative Cytolysis (%): ADCC of CD33-1 on HL60 target cells, human PBMC effector cells pre-treated with 100 nM de-methylating agent for 3 to 6 days, E:T 25:1, relative to untreated PBMC (100), 3 independent assays; for impact on ADCC of mAb 33-1: effector cells (PBMC) treated with 100 nM for 3 to 6 days, compared with untreated effector cells
Description: The ability CD33 antibodies to mediate antibody-dependent cell-mediated cytotoxicity (ADCC) in the presence of effector cells pre-treated with demethylating agents is assessed using HL60 cells as target cells and human PBMCs as effector cells.
Preparation of target cells (HL-60 acute myeloid leukemia, DSMZ #ACC3)
An aliquot of the cell culture at a cell density between 1.5×10^6/m1 and 1.8×10^6/m1 and growing in the log-phase is centrifuged (200×g, i.e. 1000 rpm) for 10 min. Cells are washed once with washing medium (RPMI 1640 w/o L-glutamine) and pelleted (200×g, i.e. 1000 rpm; 10 min). Cell pellet is suspended in assay medium (1% BSA; AlbuMAX II (Gibco 11021-037)) and cell count is determined. Cell concentration is adjusted to 2×10^5/ml.
Approximately 100 ml whole blood drawn from healthy donors is used for the isolation of PBMC. 10 ml whole blood are diluted 1:3.6 with 26 ml HBSS (Gibco 14170-088; Paisley, Scotland) in a 50 ml tube. 18 ml diluted whole blood is layered on top of 12 ml Lymphoprep (Nycomed Pharma AS 1053980) in a 50 ml tube and centrifuged at 370×g (1400 rpm) for 35 min. The mononuclear cells from the interface are aspirated and washed first with HBSS (750×g, i.e. 1900 rpm; 10 min), then a second time with HBSS (300×g, i.e. 1200 rpm; 10 min) and finally with HBSS (160×g, i.e. 900 rpm; 10 min). The pelleted cells are gently suspended in culture medium/assay medium (10% heat-inactivated human AB serum in RPMI 1640 w/o L-glutamine) using a pipette and the cell count is determined in the cell counter. The PBMC concentration is adjusted to 1×10^7/ml.
The freshly isolated PBMC (5×10^5/m1) are pre-treated with de-methylating agents in culture medium (RPMI 1640 w/o L-glutamine supplemented with 10% human AB serum and decitabine or 5-azacytidine at a final concentration of 100 nM) in a tissue culture flask (75 cm^2) at 37° C. in CO2 incubator for 3 to 6 days. De-methylating agent treated PBMC are separated from cell debris on a Lymphoprep gradient. The purified de-methylating agent treated PBMC are suspended in culture medium/assay medium ata concentration of 1×10^7/ml.
For all tested cell lines an E:T ratio of 25:1 is used. The co-cultivation of effector cells with target cells in presence of test antibody is performed in quadruplicates in 96-well round-bottom microtiter plates (Costar #3799) in a final volume of 200 μl assay medium per well consisting of 10% human AB serum and 1% BSA in RPMI in 1:1 ratio. In each experimental run two plates are assayed in parallel. First effector cells (PBMC cells in 100 μl 10% human AB serum in RPMI per well) are plated, followed by target cells (in 50 μl 1% BSA in RPMI per well) and antibody solution (candidate antibody diluted in 50 μl 1% BSA in RPMI). As a control, effector cells are cultivated in assay medium alone (effector cell control) and target cells are cultivated either in assay medium alone (spontaneous lysis) or in assay medium supplemented with 1% Triton X-100 (maximal lysis). The co-culture is incubated at 37° C. in a humid CO^2 incubator for 3 to 4 hours.
At the end of the incubation cells are removed from the culture medium by centrifugation (200×g, i.e. 1000 rpm; 10 min) at room temperature. Cell free supernatants (100 μl/well) are transferred into corresponding wells of a 96-well flat-bottom plate (Costar #3595). To determine the LDH activity in these supernatants 100 μl reaction mixture (freshly mixed 250 μl catalyst with 11.25 ml dye solution) are added to each well and incubated 30 min at room temperature in the dark. Then the absorbance is measured as described below.
Cytotoxicity Detection Kit (LDH Roche #11 644 793 001) is used to determine ADCC activity. The assay is based on the measurement of LDH enzyme activity released from plasma membrane-damaged cells. LDH released into the culture supernatants reduces the tetrazolium salt from the kit to formazan. […]

| SMILES | Relative Cytolysis (%) | Relative Cytolysis (%) (listed as 5-azacytidine) | impact on ADCC of mAb 33-1 | Relative Cytolysis (%) (listed as decitabine) |
| --- | --- | --- | --- | --- |
| Nc1ncn([C@@H]2O[C@H](CO)[C@@H](O)[C@H]2O)c(=O)n1 [5-Azacitidine, 4-amino-1-β-D-ribofuranosyl-1,3,5-triazin-2(1H)-one] | 107% | 98% | did not significantly impact | – |
| Nc1ncn([C@H]2C[C@H](O)[C@@H](CO)O2)c(=O)n1 [Decitabine, 4-Amino-1-(2-deoxy-β-D-erythro-pentofuranosyl)-1,3,5-triazin-2(1H)-one] | 98% | – | did not significantly impact | 107% |
